ChEMBL document CHEMBL6083254, “Optimization of B-Ring-Functionalized Antimalarial Tambjamines and Prodiginines” (J Med Chem, 2024)

Key:
Plasmodium falciparum [1] = assay: microbe, parasite or virus in culture; settings: D6, 72 h
Plasmodium falciparum [2] = assay: microbe, parasite or virus in culture; settings: Dd2, 72 h
Plasmodium falciparum [3] = assay: microbe, parasite or virus in culture; settings: Tm90-C2B, 72 h
HepG2 = assay: Cytotoxicity against human HepG2 cells assessed as cell viability incubated for 72 hrs by MTT assay; format: toxicity, cell-based; settings: hepg2
Plasmodium yoelii = assay: Antiplasmodial activity against asexual erythrocytic stage of Plasmodium yoelii infected in female CFI mouse model assessed as reduction in parasitemia at 25 mg/kg, po administered once daily for 4 days and measured on day 5 by Giemsa staining based microscopic analysis relative to control; format: functional; design: scale not given: the % may be the effect or the level left; settings: time 5 day
[4] = Metabolic stability in human liver microsomes assessed as half life measured upto 60 mins LC-MS analysis
[5] = Metabolic stability in mouse liver microsomes assessed as half life measured upto 60 mins LC-MS analysis
[6] = Metabolic stability in human liver microsomes assessed as intrinsic clearance measured upto 60 mins LC-MS analysis
[7] = Metabolic stability in mouse liver microsomes assessed as intrinsic clearance measured upto 60 mins LC-MS analysis
[8] = Aqueous solubility of compound in PBS buffer at pH 7.4 incubated for 90 mins by UV-vis spectroscopic analysis; settings: pH 7.4, 1.5 h
in vitro = settings: human
Description: Selectivity index, ratio of IC50 for cytotoxicity against human HepG2 cells assessed as cell viability to IC50 for antiplasmodial activity against asexual erythrocytic stage of Plasmodium falciparum D6 assessed as inhibition of parasitic growth incubated

| SMILES | IC50 (Plasmodium falciparum [1]) [nM] | IC50 (Plasmodium falciparum [2]) [nM] | IC50 (Plasmodium falciparum [3]) [nM] | half-life at 1 h [4] [min] | half-life at 1 h [5] [min] | microsomal CLint at 1 h [6] [µL/min/mg] | microsomal CLint at 1 h [7] [µL/min/mg] | solubility [8] [µM] | IC50 (HepG2) [nM] | Activity (Plasmodium yoelii) [%] | selectivity ratio (in vitro) |
| --- | --- | --- | --- | --- | --- | --- | --- | --- | --- | --- | --- |
| CCCCCCCCCCCc1ccc(/C=C2\N=C(c3ccc[nH]3)C=C2Oc2ccc(OC(F)(F)F)cc2)[nH]1 | > 2500 | > 2500 | > 2500 |  |  |  |  |  |  |  |  |
| C1=C(OCc2ccccc2)/C(=C/NC2CCCCCC2)N=C1c1ccc[nH]1.Cl | 19 | 17.3 | 21.3 | 16.3 | > 60 | 85.1 | 16 | 15.8 | 3680 | 59.5 | 194 |
| C1=C(Oc2ccccc2)/C(=C/NC2CCCCCC2)N=C1c1ccc[nH]1 | 354 | 317 | 276 |  |  |  |  |  |  |  |  |
| Cl.Clc1ccc(OC2=CC(c3ccc[nH]3)=N/C2=C\NC23CC4CC(CC(C4)C2)C3)cc1 | 52.8 | 22 | 28.3 | > 60 | > 60 | 6.72 | 2.1 |  |  | 58 | 275 |
| CC(C)CN/C=C1\N=C(c2ccc[nH]2)C=C1OCc1ccc(Cl)cc1 | 89.7 | 62.3 | 68.8 |  |  |  |  |  | 6960 |  | 78 |
| CCCOC1=CC(c2ccc[nH]2)=N/C1=C\NC1CCCCCC1.Cl |  | 0.632 | 0.348 | 35.2 | 53.2 | 39.4 | 26 | 77.7 | 2890 | 75.5 | 7960 |
| Clc1ccc(OC2=CC(c3ccc[nH]3)=N/C2=C\NC2CCCCCC2)cc1 | 517 | 681 | 561 |  |  |  |  |  |  |  |  |
| CC(C)CN/C=C1\N=C(c2ccc[nH]2)C=C1Oc1ccc(OC(F)(F)F)cc1 | > 2500 | > 2500 | > 2500 |  |  |  |  |  |  |  |  |
| Cl.Clc1ccc(COC2=CC(c3ccc[nH]3)=N/C2=C\NC23CC4CC(CC(C4)C2)C3)cc1 | 14.1 | 8.56 | 11.4 |  |  |  |  |  | 2250 | 40 | 160 |
| CC(C)CN/C=C1\N=C(c2ccc[nH]2)C=C1Oc1ccccc1 |  | 1690 | 884 |  |  |  |  |  |  |  |  |
| COC1=CC(c2ccc[nH]2)=N/C1=C\NCC(C)C | 112 | 92.8 | 103 |  |  |  |  |  | 19100 | 18.2 | 170 |
| CCOC1=CC(c2ccc[nH]2)=N/C1=C\NCC(C)C.Cl | 30 | 46.7 | 41.6 |  |  |  |  |  | 4620 | 0 | 154 |
| CC(C)CN/C=C1\N=C(c2ccc[nH]2)C=C1OCc1ccccc1.Cl | 48.7 | 58 | 52.1 |  |  |  |  |  | 8860 | 0 | 182 |
| CCCCCCCCCCCCN/C=C1\N=C(c2ccc[nH]2)C=C1OC | 65.9 | 69.9 | 96.9 |  |  |  |  |  | 6100 |  | 93 |
| FC(F)(F)Oc1ccc(OC2=CC(c3ccc[nH]3)=N/C2=C\NC2CCCCCC2)cc1 | 1190 | > 2500 | 1690 |  |  |  |  |  |  |  |  |
| Cl.FC(F)(F)Oc1ccc(OC2=CC(c3ccc[nH]3)=N/C2=C\NC23CC4CC(CC(C4)C2)C3)cc1 | 193 | 242 | 204 |  |  |  |  |  | 28200 | 83 | 146 |
| CCOC1=CC(c2ccc[nH]2)=N/C1=C\NC1CCCCCC1.Cl | 7.33 | 5.27 | 4.93 | 35.7 | > 60 | 38.8 | 14.4 | 178 | 2260 | 8.5 |  |
| CCCOC1=CC(c2ccc[nH]2)=N/C1=C\NCC(C)C.Cl | 20.9 | 15.5 | 23.1 |  |  |  |  |  | 7630 | 75.4 | 365 |
| Clc1ccc(COC2=CC(c3ccc[nH]3)=N/C2=C\NC2CCCCCC2)cc1 | 121 | 79.9 | 97.8 |  |  |  |  |  | 8480 |  | 70 |
| CC(C)CN/C=C1\N=C(c2ccc[nH]2)C=C1OC(C)C.Cl |  | 37.7 | 34.2 |  |  |  |  |  | 7420 | 0 | 201 |
| CC(C)CN/C=C1\N=C(c2ccc[nH]2)C=C1Oc1ccc(Cl)cc1 | > 2500 | > 2500 | > 2500 |  |  |  |  |  |  |  |  |
| CCCCCCCCCCCCN/C=C1\N=C(c2ccc[nH]2)C=C1Oc1ccc(Cl)cc1 | > 2500 | > 2500 | > 2500 |  |  |  |  |  |  |  |  |
| CCCCCCCCCCCc1ccc(/C=C2\N=C(c3ccc[nH]3)C=C2OCc2ccc(Cl)cc2)[nH]1 |  | 939 | 1850 |  |  |  |  |  |  |  |  |
| OC(c1cc(C(F)(F)F)nc2c(C(F)(F)F)cccc12)C1CCCCN1 (stereo unspecified) [MEFLOQUINE] |  |  |  |  |  |  |  |  | 13700 |  |  |

More lines, main results first:

| IC50 (Plasmodium falciparum [1]) [nM] | IC50 (Plasmodium falciparum [2]) [nM] | IC50 (Plasmodium falciparum [3]) [nM] | half-life at 1 h [4] [min] | half-life at 1 h [5] [min] | microsomal CLint at 1 h [6] [µL/min/mg] | microsomal CLint at 1 h [7] [µL/min/mg] | solubility [8] [µM] | SMILES | IC50 (HepG2) [nM] | Activity (Plasmodium yoelii) [%] | selectivity ratio (in vitro) |
| --- | --- | --- | --- | --- | --- | --- | --- | --- | --- | --- | --- |
| > 2500 | > 2500 | > 2500 |  |  |  |  |  | CCCCCCCCCCCc1ccc(/C=C2\N=C(c3ccc[nH]3)C=C2OCc2ccc(OC(F)(F)F)cc2)[nH]1 |  |  |  |
| 410 | 340 | 305 |  |  |  |  |  | CCCCCCCCCCCCN/C=C1\N=C(c2ccc[nH]2)C=C1OCc1ccc(Cl)cc1 |  |  |  |
| > 2500 | > 2500 | > 2500 |  |  |  |  |  | CCCCCCCCCCCCN/C=C1\N=C(c2ccc[nH]2)C=C1Oc1ccc(OC(F)(F)F)cc1 |  |  |  |
| 413 | 350 | 320 |  |  |  |  |  | CCCCCCCCCCCCN/C=C1\N=C(c2ccc[nH]2)C=C1OCc1ccc(OC(F)(F)F)cc1 |  |  |  |
| 11.1 | 9.68 | 12.7 |  |  |  |  |  | CCCCCCCCCCCCN/C=C1\N=C(c2ccc[nH]2)C=C1OCC.Cl | 4350 | 0 | 391 |
|  | 60.2 | 54.6 |  |  |  |  |  | CCCCCCCCCCCCN/C=C1\N=C(c2ccc[nH]2)C=C1OCc1ccccc1.Cl | 7740 | 0 | 144 |
| 1320 | 1400 | 2300 |  |  |  |  |  | CCCCCCCCCCCc1ccc(/C=C2\N=C(c3ccc[nH]3)C=C2Oc2ccc(Cl)cc2)[nH]1 |  |  |  |
| 32.8 | 44.2 | 39 |  |  |  |  |  | CCCCCCCCCCCCN/C=C1\N=C(c2ccc[nH]2)C=C1OCCC.Cl | 4440 | 16.4 | 135 |
| 49.5 | 38.7 | 26.3 |  |  |  |  |  | Cl.FC(F)(F)Oc1ccc(COC2=CC(c3ccc[nH]3)=N/C2=C\NC2CCCCCC2)cc1 | 5720 | 72.3 | 116 |
| 29.7 | 37.5 | 37.2 |  |  |  |  |  | CCCCCCCCCCCCN/C=C1\N=C(c2ccc[nH]2)C=C1OC(C)C.Cl | 3070 | 0 | 103 |
| > 2500 | > 2500 | > 2500 |  |  |  |  |  | CCCCCCCCCCCCN/C=C1\N=C(c2ccc[nH]2)C=C1Oc1ccccc1 |  |  |  |
|  | 205 | 335 |  |  |  |  |  | CC(C)CN/C=C1\N=C(c2ccc[nH]2)C=C1OCc1ccc(OC(F)(F)F)cc1 |  |  |  |
